Values after ≈ are worked out from the molar mass of the structure shown. Some results are limits rather than exact numbers.

We go through three compounds from patent US6495591B1, “Fungal efflux pump inhibitors” (Essential Therapeutics, Inc., priority 1997, dated 2002).

Common to all, as to experiment: microbe, parasite or virus in culture
What all share (type): cell-based

Assay [1] concerns C. albicans YEM-15 (CDR1 & CDR2 overexpressor).
The subject of assay [2] is C. glabrata YEM-19 (CgCDR overexpressor).
In assay [3] the test system is S. cerevisiae YEM-1 (CDR1 introduced). Particulars: YEM-1, CDR1; milbemycin β1 […].
For assay [4], the system named is S. cerevisiae YEM-37 (CDR2 introduced).
The subject of assay [5] is S. cerevisiae YEM-39 (CgCDR introduced).
Assay [6] relates to S. cerevisiae YEM-2 (BEN introduced). Particulars: YEM-2, BEN; milbemycin β1 […].
The test system of assay [7] is S. cerevisiae YEM-40 (CgCDR, MF, introduced).
For assay [8], the system named is S. cerevisiae YEM-38 (FLU1 introduced).
For assay [9], the system named is C. albicans YEM-11 (BEN overexpressor).
For assay [10], the system named is C. albicans YEM-13 (BEN overexpressor).
Assay [11] has as its system C. albicans YEM-15 (CDR1 and CDR2 overexpressor).
Assay [12] has as its system C. albicans YEM-5 (CDR1 and CDR2 overexpressor).
For assay [13], the system named is S. cerevisiae YEM-3 (no efflux pump introduced). Particulars: Saccharomyces cerevisiae, read-out: MIC Flu alone.
[14] abbreviates: Saccharomyces cerevisiae, read-out: MIC Flu alone.
Setting [15] is: Candida albicans, read-out: MIC Flu alone.

As for Milbemycin oxime [Compound 2], the “MIC of fluconazole, Flu + McOxm (2.5 μg/ml)” value is 0.25 µg/mL in assay [1] and 128 µg/mL in assay [2].
As to `CO[C@H]1C[C@@]2(O)/C(CO)=C/C=C/[C@H](C)C/C(C)=C/C[C@@H]3C[C@@H](C[C@]4(CC[C@H](C)[C@@H](C)O4)O3)OC(=O)[C@@H]2C=C1C` [Compound 6, Milbemycin β1], the MIC of fluconazole, Flu + Mb ([…]) in assay [3] worked out at 0.25 µg/mL; in assay [4] (YEM-37, CDR2, milbemycin β1 […]), 0.25 µg/mL; in assay [5] (YEM-39, CgCDR, milbemycin β1 […]), 1 µg/mL; in assay [6], 128 µg/mL; in [7] (YEM-40, CgCDR (MF), milbemycin β1 […]) it was 16 µg/mL; in [8] (YEM-38, FLU1, milbemycin β1 […]), 4 µg/mL. In addition, the “MIC of fluconazole, Flu + Mb (2.5 μg/ml)” value worked out at 32 µg/mL in [9] (YEM-11, milbemycin β1 2.5 μg/ml); 32 µg/mL in [10] (YEM-13, milbemycin β1 2.5 μg/ml); 1 µg/mL in assay [11] (YEM-15, milbemycin β1 2.5 μg/ml); 8 µg/mL in [12] (YEM-5, milbemycin β1 2.5 μg/ml).
On to `OC(Cn1cncn1)(Cn1cncn1)c1ccc(F)cc1F` [Fluconazole, fluconazole, reference compound], for which the MIC in assay [13] amounted to 0.25 µg/mL (≈ 0.816 µM); in assay [4] (setting [14]), 2 µg/mL (≈ 6.53 µM); in assay [5] (setting [14]) it was 32 µg/mL (≈ 104 µM); in assay [7] (setting [14]), 16 µg/mL (≈ 52.2 µM); in [8] (setting [14]), 4 µg/mL (≈ 13.1 µM); in [9] (setting [15]), 32 µg/mL (≈ 104 µM). The MIC was 32 µg/mL (≈ 104 µM) in assay [10] (setting [15]); 128 µg/mL (≈ 418 µM) in assay [11] (setting [15]); more than 128 µg/mL in assay [12] (setting [15]); 128 µg/mL (≈ 418 µM) in assay [1] (setting [15]); more than 128 µg/mL in assay [2] (Nakaseomyces glabratus, read-out: MIC Flu alone).
